According to paper PMC13022995 (Environmental science & technology, 2025):
Read-outs that look alike come from different tables or passages of the source.

Legend:
HepG2 cells = format: cell-based, human
p53RE-bla HCT116 cells = format: cell-based, human
[1] = tested on: liver, renal, bladder, and lung cells
[2] = tested on: hTERT-MSCs and aortic ECs (TeloHAECs) co-culture; format: cell-based, human

Row | SMILES | cytotoxicity of single compound [1] | angiogenesis induction [2] | other results
1 | O=[As]O[As]=O (stereo not drawn) [arsenic oxide] | – | – | ROS induction (HepG2 cells; HepG2 cells): not detected
2 | O.O.O.O.O=S(=O)([O-])[O-].[Be+2] [beryllium sulfate tetrahydrate] | – | – | ROS induction (HepG2 cells; HepG2 cells): not detected; p53 activation (p53RE-bla HCT116 cells): activated p53
3 | CC(=O)[O-].CC(=O)[O-].O.O.[Cd+2] [cadmium acetate dihydrate, Cadmium acetate dihydrate] | cytotoxic by themselves | independently induce angiogenesis | –
4 | [Cl][Cd][Cl] [cadmium chloride] | cytotoxic by themselves | independently induce angiogenesis | –
5 | O.O.O.O.O=[N+]([O-])[O-].O=[N+]([O-])[O-].[Cd+2] [cadmium nitrate tetrahydrate, Cadmium nitrate tetrahydrate] | cytotoxic by themselves | independently induce angiogenesis | oxidative stress-inducing capability (HepG2 cells; among components of Mixture 1, Supporting Table 3): exhibited oxidative stress-inducing capability
6 | CC(=O)[O-].CC(=O)[O-].O.O.O.[Pb+2] [lead(II) acetate trihydrate] | cytotoxic by themselves | – | –
7 | [Cl][Pb][Cl] [lead(II) chloride, Lead(II) chloride] | cytotoxic by themselves | induced angiogenesis | –
8 | O.O.O.O.O.O.O=S(=O)([O-])[O-].[Ni+2] [nickel sulfate, nickel(II) sulfate hexahydrate] | – | – | ROS induction (HepG2 cells): not detected
9 | O=[N+]([O-])c1ccc([As](=O)(O)O)cc1 [nitarsone, Nitarsone] | – | induced angiogenesis | –
